Where two headings read alike, the source gives them in different places.
How the values were obtained:
[1] = test system: subcutaneous xenograft tumor model of MIA PaCa-2; experiment: In vivo pharmacodynamic experiment, tumor growth inhibition (Test Example 5); parameters: species or system BALB/c nude mice; conditions: p.o., QD; for TGI: day 14
Experimental: Experimental objective: to evaluate the in vivo pharmaceutical effects of tested compounds on the subcutaneous xenograft tumor model of MIA PaCa-2.
Experimental operation: 6 to 8 weeks old female BALB/c nude mice each having the body weight of 18-20 g were chosen. MIA PaCa-2 cells were cultured in DMEM containing 10% FBS, 2.5% HS and 1% penicillin-streptomycin at 37° C. in an incubator with 5% CO2. Cells were collected. The MIA PaCa-2 cells were subcutaneously inoculated to the animals at their backs on the right, 2.0×10^6 cells (0.1 mL) for each animal. When tumor grew to 190-311 mm^3, mice with tumor having a suitable size were chosen and treated in groups, with administration dosages shown in Table 5 below. The animals were weighed on an electronic balance each day. The tumor volume was investigated by using a vernier caliper twice a week. The tumor volume was calculated by the following equation: V=0.5 a×b^2, a and b representing the long diameter and the short diameter of the tumor, respectively. The tumor volume was used to calculate a tumor growth inhibition rate (TGI), and the TGI shown in the form of a percentage was used to indicate the antineoplastic activity of a compound. The TGI was calculated by the following equation: TGI (%)=[1−avTi−0/avCi−0)]×100, with avTi−0 representing the average tumor volume of the group administrated with the compound on a specific day minus the average tumor volume of this group on the day of grouping, and avCi−0 representing the average tumor volume of the solvent control group on a specific day minus the average tumor volume of the solvent control group on the day of grouping. The tumor volume was shown in the form of an average value±standard error of mean (SEM).

[2] = Pharmacokinetic evaluation on mice, intragastric (PO) administration (Test Example 6); format: in vivo; conditions: PO 15 mg/kg, male CD-1 mice
Experimental: (§1) Experimental objective: male CD-1 mice were chosen as tested animals, and the LC-MS-MS method was employed to measure the concentrations of a tested compound in blood plasma of a mouse intravenously and intragastrically administrated with the tested compound at different times. The pharmacokinetic behaviors of tested compounds in mice were studied, and the pharmacokinetic characteristics thereof were evaluated.
(§2) Experimental scheme: experimental animals: 18 healthy adult male CD-1 mice (6 to 8 weeks old, and body weight about 30 g) were divided into 6 groups according to the principle of similar body weights: 3 mice in each of IV groups (3 groups), and 3 mice in each of PO groups (3 groups). The animals were purchased from Shanghai Jihui Laboratory Animal Care Co., Ltd.
(§3) Formulation: IV group: taking 10 mL of sample solution for example, 4 mg of sample was weighed, orderly added with 0.5 mL of DMSO and […], then added with […] of HP-p-CD, finally added with water to a constant volume of 10 mL, and stirred and subjected to ultrasonic irradiation, thereby obtaining a 0.4 mg/mL clear solution. PO group: an appropriate amount of sample was weighed, orderly added with appropriate amounts of Labrasol and water in a volume ratio of 10:40, and stirred and subjected to ultrasonic irradiation, thereby obtaining a 1.5 mg/mL uniform solution.
(§4) Administration: after being deprived of food for one night, the IV groups were intravenously administrated with the formulated solutions, respectively, with an injection volume of 5 mL/kg and a dosage of 2 mg/kg. The PO groups were intragastrically administrated with the formulated solutions, respectively, with an injection volume of […] and a dosage of 15 mg/kg.
(§5) Experimental operations: after the intravenous injection groups and the intragastric administration groups of the male CD-1 mice were administrated with the tested compounds, 110 ul of blood was sampled at the following time points: 0.0833, 0.25, 0.5, 1, 2, 4, 6, 8, and 24 hours. The sampled blood was placed into an anticoagulant tube which was added with K2EDTA in advance and preserved in dry ice. The tube was centrifuged for 15 minutes to separate blood plasma, and the separated blood plasma was preserved at −70° C. The animals were allowed to be fed after 4 hours of administration. The LC-MS-MS method was employed to measure the concentration of the tested compounds in the blood plasma after the intravenous and intragastric administration to the mice. The linear range of the method was 1-3000 ng/ml. The blood plasma samples were analyzed after protein precipitation with ACN.

[3] = Pharmacokinetic evaluation on mice, intravenous administration (Test Example 6); format: in vivo; conditions: male CD-1 mice, IV 2 mg/kg
Experimental: as §1, §2, §3, §4, §5

[4] = test system: phosphorylated ERK in MIA PaCa2 cells with Kras G12C mutation; experiment: p-ERK HTRF assay for cells (Test Example 2); format: cell-based, human; conditions: MIA PaCa2 cells, 2 hours with compound, read-out: p-ERK IC50
Outline: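 MIA PaCa2 cells (2.5E4/well, seeded overnight) treated 2 h with compound in a 3.16-fold series at 0.1% DMSO. Cells lysed 30 min; p-ERK read by HTRF after 4 h antibody incubation. Inhibition relative to DMSO and blank; IC50 by four-parameter fit.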

[5] = test system: NCI-H358 cells with Kras G12C mutation; experiment: Cell proliferation inhibition experiment, 3D spheroid, CellTiter-Glo (Test Example 1); format: cell-based, human; conditions: 5 days
Outline: (§6)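 NCI-H358 (800 cells/well) and A549 (400 cells/well) grown overnight as 3D spheroids in 2% FBS medium, then exposed to compound dilution series (3.16-fold, 0.1% DMSO) for 5 days. CellTiter-Glo luminescence read; inhibition relative to DMSO and blank, IC50 by four-parameter fit.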

[6] = test system: A549 cells with Kras G12S mutation; experiment: as above; format: cell-based, human; conditions: Homo sapiens, A549, 120 h, 5 days
Outline: as §6

[7] = test system: MIA PaCa-2 cells with Kras G12C mutation; experiment: Cell proliferation inhibition experiment, 3D spheroid, CellTiter-Glo (Test Example 3); format: cell-based, human; conditions: Homo sapiens, MIA PaCa-2, 120 h, 5 days, read-out: MIA-PaCa2 IC50
Outline: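 MIA PaCa-2 spheroids (200 cells/well) were formed overnight, then exposed for 5 days to compounds in 3.16-fold dilutions at 0.1% DMSO. Viability was read by CellTiter-Glo luminescence, and inhibition was normalised to DMSO control and medium blank. IC50 came from a four-parameter fit.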

KRas G12C = KRas G12C (Homo sapiens (Human), UniProt P01116, G12C); experiment: Nucleotide exchange assay (NEA)-HTRF, SOS1 catalyzed displacement of GDP by GTP (Test Example 4); format: biochemical
Experimental: The effects of compounds on SOS1 catalyzed displacement of GDP by GTP on KRas proteins was examined by homogeneous time-resolved fluorescence (HTRF). 30 μM 6×his labeled KRas G12C recombinant protein and 80 μM fluorochrome DY647 labeled GDP were co-incubated in a labeling buffer (1 mM DTT, 7.5 mM EDTA, 25 mM Tris-HCl, 45 mM NaCl) at 20° C. away from light for 2 hours. Protein quantification was performed after purification on the NAP-5 column to determine the concentration of KRas G12C-GDP.
1000× stock solutions of compounds at a concentration gradient of 3.16 were prepared by using DMSO, and diluted 250 times by a reaction buffer (40 mM N-2-hydroxyethylpiperazine-N-2-ethane sulfonic acid (HEPES), 10 mM MgCl2, 1 mM DTT, 0.002% Triton X-100) into 4× stock solutions of compounds. KRas G12C-GDP/Tb working solution (40 nM KRas G12C-GDP, 1×anti-his Tb) and SOS1/GTP working solution (0.2 μM SOS1, 200 μM GTP) were prepared by using the reaction buffer.
5 μl of 4×stock solution of a compound and 10 μl of KRas G12C-GDP/T working solution were added to each well of 96-well plate with white unclear bottom, and 5 μl of reaction buffer was added to the well of control group in stead of the 4×stock solution of a compound. After incubation at 20° C. away from light for 15 minutes, 5 μl of SOS1/GTP working solution was added and incubated at 20° C. away from light for 2 hours, and then a value of fluorescence intensity was read (excitation wavelength: 320 nm, and emission wavelengths: 615 nm and 665 nm). Besides, group TO was established with 10 μl of the reaction buffer and 10 μl of the KRas G12C-GDP/Tb working solution, and the value of fluorescence intensity was directly read. A relative light unit (RLU) was calculated by the following equation: RLU=(665 nm signal/615 nm signal)×10^4; and the inhibition rate (IR) of the compound was calculated by the following equation: IR (%)=(RLUcompound−RLUcontrol)/(RLUT0−RLUcontrol)×100%. The value of IC50 was calculated by fitting a gradiently diluted concentration of the compound and the corresponding cell proliferation inhibition rate using a four-parameter method.

Sequence of KRas G12C (P01116-2 other isoform, or with tags, fused parts or gaps G12C): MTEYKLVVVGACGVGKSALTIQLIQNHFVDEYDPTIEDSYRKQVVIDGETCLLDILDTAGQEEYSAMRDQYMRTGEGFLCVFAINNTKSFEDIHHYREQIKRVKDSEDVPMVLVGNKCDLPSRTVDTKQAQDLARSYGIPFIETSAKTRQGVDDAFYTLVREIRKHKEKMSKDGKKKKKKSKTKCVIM

C=CC(=O)N1CCN(c2nc(=O)n(-c3c(C)ccnc3C(C)C)c3nc(-c4c(O)cccc4F)c(F)cc23)[C@@H](C)C1 [AMG 510, reference compound]
Tumor Volume on Day 14 after Administration ([1]; 1 mg/kg): 314.28 mm^3 | TGI ([1]; 1 mg/kg): 82.8% | Tumor Volume on Day 14 after Administration ([1]; 3 mg/kg): 205.35 mm^3 | TGI ([1]; 3 mg/kg): 109.1% | Tumor Volume on Day 14 after Administration ([1]; 10 mg/kg): 81.72 mm^3 | TGI ([1]; 10 mg/kg): 138.9% | F (bioavailability) [2]: 36.10% | Cmax ([2]; plasma): 1221 ng/mL | Tmax ([2]; plasma): 60 min | Cl (clearance rate) [3]: 73.2 mL/min/kg | T1/2 (half-life) [3]: 19.1 min | Vd (volume of distribution) [3]: 1.15 L/kg

C=CC(=O)N1CCN2c3c(c(=O)n(-c4c(C)ccnc4C(C)C)c4nc(-c5c(O)cccc5F)c(F)cc34)N(CC)C(=O)[C@H]2C1 [Compound Z30, (4aR)-3-acryloyl-6-ethyl-11-fluoro-10-(2-fluoro-6-hydroxyphenyl)-8-(2-isopropyl-4-methylpyridin-3-yl)-2,3,4,4a,6,8-hexahydro-1H-pyrazino[1′,2′:4,5]pyrazino[2,3-c][1,8]naphthyridin-5,7-dione]
IC50 ([4]; Homo sapiens, MIA PaCa-2, 2 h): 676 nM | IC50 [5]: 51 nM | IC50 [6]: > 30000 nM | IC50 [7]: 140 nM | IC50 (KRas G12C): 656 nM

C=CC(=O)N1C[C@@H]2C(=O)N(C)c3c(c4cc(C5CC5)c(-c5c(O)cccc5F)nc4n(-c4c(C)ccnc4C(C)C)c3=O)N2C[C@H]1C [Compound Z31, (2R,4aR)-3-acryloyl-11-cyclopropyl-10-(2-fluoro-6-hydroxyphenyl)-8-(2-isopropyl-4-methylpyridin-3-yl)-2,6-dimethyl-2,3,4,4a,6,8-hexahydro-1H-pyrazino[1′,2′:4,5]pyrazino[2,3-c][1,8]naphthyridin-5,7-dione]
IC50 ([4]; Homo sapiens, MIA PaCa-2, 2 h): 206 nM | IC50 ([5]; Homo sapiens, NCI-H358, 120 h): 17 nM | IC50 [6]: 9490 nM | IC50 [7]: 59 nM | IC50 (KRas G12C): 151 nM

C=CC(=O)N1C[C@@H]2C(=O)Nc3c(c4cc(F)c(-c5c(O)cccc5F)nc4n(-c4c(C)ccnc4C(C)C)c3=O)N2C[C@H]1C [Compound Z35, (2R,4aR)-3-acryloyl-11-fluoro-10-(2-fluoro-6-hydroxyphenyl)-8-(2-isopropyl-4-methylpyridin-3-yl)-2-methyl-2,3,4,4a,6,8-hexahydro-1H-pyrazino[1′, 2′:4]pyrazino[2,3,3-c][1,8,8]naphthyridin-5-dione]
IC50 [4]: 83 nM | IC50 [5]: 6 nM | IC50 [6]: 28200 nM | IC50 [7]: 15 nM | IC50 (KRas G12C): 73 nM

C=CC(=O)N1CCN2c3c(c(=O)n(-c4c(C(C)C)ccnc4C(C)C)c4c(F)c(-c5c(O)cccc5F)c(Cl)cc34)N(C)C(=O)[C@H]2C1 [Compound Z37]
IC50 ([4]; Homo sapiens, MIA PaCa-2, 2 h): 21 nM | IC50 ([5]; Homo sapiens, NCI-H358, 120 h): 1 nM | IC50 [6]: 8570 nM | IC50 [7]: 4 nM | IC50 (KRas G12C): 20 nM

C=CC(=O)N1C[C@@H]2C(=O)N(C)c3c(c4cc(Cl)c(-c5c(O)cccc5F)c(F)c4n(-c4c(C(C)C)ncnc4C(C)C)c3=O)N2C[C@H]1C [Compound Z50]
IC50 ([4]; Homo sapiens, MIA PaCa-2, 2 h): 7 nM | IC50 ([5]; Homo sapiens, NCI-H358, 120 h): 0.5 nM | IC50 [6]: 28300 nM | IC50 [7]: 2 nM | IC50 (KRas G12C): 19 nM

Source: US12054497B2, “Substituted heterocyclic fused cyclic compound, preparation method therefor and pharmaceutical use thereof” (GENFLEET THERAPEUTICS (SHANGHAI) INC., priority 2019, dated 2024)
